pIC50, pKi: −log10 of the molar value.
Tests used:
[1] = target: T1, 72 kDa type IV collagenase (Homo sapiens, UniProt P08253); experiment: Inhibition of MMP-2 (unknown origin) using Mca-Pro-Leu-Gly-Leu-Dpa-Ala-Arg-NH2 as substrate by fluorimetric assay
[2] = target: T2, Matrix metalloproteinase-9 (Homo sapiens, UniProt P14780); experiment: Inhibition of MMP-9 (unknown origin) using Mca-Pro-Leu-Gly-Leu-Dpa-Ala-Arg-NH2 as substrate by fluorimetric assay
[3] = target: T1, 72 kDa type IV collagenase
Interstitial collagenase [4] = target: T3, Interstitial collagenase (Homo sapiens, UniProt P03956); experiment: Inhibition of MMP-1 (unknown origin)
T3 sequence (P03956 whole entry): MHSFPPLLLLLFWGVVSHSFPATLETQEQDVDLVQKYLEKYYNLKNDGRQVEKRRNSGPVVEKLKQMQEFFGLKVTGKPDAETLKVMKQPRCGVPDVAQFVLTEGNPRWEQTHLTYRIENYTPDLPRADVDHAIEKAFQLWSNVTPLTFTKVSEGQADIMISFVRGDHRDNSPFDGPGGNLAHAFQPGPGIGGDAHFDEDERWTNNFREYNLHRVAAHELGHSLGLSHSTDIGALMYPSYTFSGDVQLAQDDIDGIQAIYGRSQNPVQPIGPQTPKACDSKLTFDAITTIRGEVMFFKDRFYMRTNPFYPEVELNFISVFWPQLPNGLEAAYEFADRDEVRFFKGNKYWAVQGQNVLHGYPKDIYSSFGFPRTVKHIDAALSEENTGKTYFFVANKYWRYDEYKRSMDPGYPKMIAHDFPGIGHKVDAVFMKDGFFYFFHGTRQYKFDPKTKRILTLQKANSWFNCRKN

[5] = target: T2, Matrix metalloproteinase-9; experiment: Inhibition of MMP-9 (unknown origin)
Collagenase 3 [6] = target: T4, Collagenase 3 (Homo sapiens, UniProt P45452)
Description: Inhibition of MMP-13 (unknown origin)

[7] = target: T5, Matrix metalloproteinase-14 (Homo sapiens, UniProt P50281); experiment: Inhibition of MMP-14 (unknown origin)
Matrilysin [8] = target: T6, Matrilysin (Homo sapiens, UniProt P09237); experiment: Inhibition of MMP-7 (unknown origin)
T6 sequence (P09237 whole entry): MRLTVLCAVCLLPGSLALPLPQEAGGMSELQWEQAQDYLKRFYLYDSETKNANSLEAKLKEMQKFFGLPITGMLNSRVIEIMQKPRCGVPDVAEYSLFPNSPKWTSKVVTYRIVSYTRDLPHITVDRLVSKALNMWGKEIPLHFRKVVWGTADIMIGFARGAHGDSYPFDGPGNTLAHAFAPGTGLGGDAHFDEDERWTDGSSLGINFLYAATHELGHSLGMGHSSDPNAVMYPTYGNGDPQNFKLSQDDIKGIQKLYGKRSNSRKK

Stromelysin-1 [9] = target: T7, Stromelysin-1 (Homo sapiens, UniProt P08254); experiment: Inhibition of MMP-3 (unknown origin)
T7 sequence (P08254 whole entry): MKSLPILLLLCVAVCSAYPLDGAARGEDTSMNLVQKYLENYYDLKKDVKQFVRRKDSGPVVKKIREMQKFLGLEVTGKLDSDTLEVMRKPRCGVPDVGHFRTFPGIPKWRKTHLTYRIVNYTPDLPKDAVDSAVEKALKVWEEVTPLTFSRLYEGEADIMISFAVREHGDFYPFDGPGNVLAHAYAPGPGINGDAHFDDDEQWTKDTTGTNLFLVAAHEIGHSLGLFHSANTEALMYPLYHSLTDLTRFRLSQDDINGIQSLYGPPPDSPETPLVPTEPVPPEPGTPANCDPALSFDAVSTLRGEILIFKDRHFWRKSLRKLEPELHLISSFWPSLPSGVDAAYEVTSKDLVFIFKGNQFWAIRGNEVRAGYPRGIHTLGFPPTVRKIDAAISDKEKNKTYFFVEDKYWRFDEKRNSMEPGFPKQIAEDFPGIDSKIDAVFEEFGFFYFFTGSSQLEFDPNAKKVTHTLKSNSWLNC

[10] = target: T1, 72 kDa type IV collagenase; experiment: Inhibition of human MMP-2 expressed in Escherichia coli BL21(DE3) using Mca-Pro-Leu-Gly-Leu-Dpa-Ala-Arg-NH2 as substrate preincubated for 30 mins followed by susbstrate addition by photon-counter spectrophotometer analysis
[11] = target: T2, Matrix metalloproteinase-9; experiment: Inhibition of human MMP-9 expressed in Escherichia coli BL21(DE3) using Mca-Pro-Leu-Gly-Leu-Dpa-Ala-Arg-NH2 as substrate preincubated for 30 mins followed by susbstrate addition by photon-counter spectrophotometer analysis
Interstitial collagenase [12] = target: T3, Interstitial collagenase; experiment: Inhibition of human MMP-1 expressed in Escherichia coli BL21(DE3) using Mca-Pro-Leu-Gly-Leu-Dpa-Ala-Arg-NH2 as substrate preincubated for 30 mins followed by susbstrate addition by photon-counter spectrophotometer analysis
Stromelysin-1 [13] = target: T7, Stromelysin-1; experiment: Inhibition of human MMP-3 expressed in Escherichia coli BL21(DE3) using Mca-Pro-Leu-Gly-Leu-Dpa-Ala-Arg-NH2 as substrate preincubated for 30 mins followed by susbstrate addition by photon-counter spectrophotometer analysis
[14] = target: T5, Matrix metalloproteinase-14; experiment: Inhibition of human MMP-14 expressed in Escherichia coli BL21(DE3) using Mca-Pro-Leu-Gly-Leu-Dpa-Ala-Arg-NH2 as substrate preincubated for 30 mins followed by susbstrate addition by photon-counter spectrophotometer analysis
Neutrophil collagenase [15] = target: T8, Neutrophil collagenase (Homo sapiens, UniProt P22894); experiment: Inhibition of human MMP-8 expressed in Escherichia coli BL21(DE3) using Mca-Pro-Leu-Gly-Leu-Dpa-Ala-Arg-NH2 as substrate preincubated for 30 mins followed by susbstrate addition by photon-counter spectrophotometer analysis
T8 sequence (P22894 whole entry): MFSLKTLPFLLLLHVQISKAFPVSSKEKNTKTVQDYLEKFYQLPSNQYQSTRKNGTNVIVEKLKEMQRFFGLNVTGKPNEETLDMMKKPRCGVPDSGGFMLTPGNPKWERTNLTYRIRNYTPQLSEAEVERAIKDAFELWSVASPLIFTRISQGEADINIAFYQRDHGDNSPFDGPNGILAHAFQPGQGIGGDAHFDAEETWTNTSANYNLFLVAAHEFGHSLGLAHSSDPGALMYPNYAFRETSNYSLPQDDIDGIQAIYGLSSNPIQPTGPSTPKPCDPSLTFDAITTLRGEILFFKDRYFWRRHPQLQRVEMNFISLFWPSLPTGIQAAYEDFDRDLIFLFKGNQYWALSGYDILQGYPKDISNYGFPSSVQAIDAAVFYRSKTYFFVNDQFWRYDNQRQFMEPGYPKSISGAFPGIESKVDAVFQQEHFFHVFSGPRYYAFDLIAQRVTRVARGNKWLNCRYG

Matrilysin [16] = target: T6, Matrilysin; experiment: Inhibition of human MMP-7 expressed in Escherichia coli BL21(DE3) using Mca-Pro-Leu-Gly-Leu-Dpa-Ala-Arg-NH2 as substrate preincubated for 30 mins followed by susbstrate addition by photon-counter spectrophotometer analysis
Collagenase 3 [17] = target: T4, Collagenase 3; experiment: Inhibition of human MMP-13 expressed in Escherichia coli BL21(DE3) using Mca-Pro-Leu-Gly-Leu-Dpa-Ala-Arg-NH2 as substrate preincubated for 30 mins followed by susbstrate addition by photon-counter spectrophotometer analysis
Stromelysin-2 [18] = target: T9, Stromelysin-2 (Homo sapiens, UniProt P09238); experiment: Inhibition of human MMP-10 expressed in Escherichia coli BL21(DE3) using Mca-Pro-Leu-Gly-Leu-Dpa-Ala-Arg-NH2 as substrate preincubated for 30 mins followed by susbstrate addition by photon-counter spectrophotometer analysis
T9 sequence (P09238 whole entry): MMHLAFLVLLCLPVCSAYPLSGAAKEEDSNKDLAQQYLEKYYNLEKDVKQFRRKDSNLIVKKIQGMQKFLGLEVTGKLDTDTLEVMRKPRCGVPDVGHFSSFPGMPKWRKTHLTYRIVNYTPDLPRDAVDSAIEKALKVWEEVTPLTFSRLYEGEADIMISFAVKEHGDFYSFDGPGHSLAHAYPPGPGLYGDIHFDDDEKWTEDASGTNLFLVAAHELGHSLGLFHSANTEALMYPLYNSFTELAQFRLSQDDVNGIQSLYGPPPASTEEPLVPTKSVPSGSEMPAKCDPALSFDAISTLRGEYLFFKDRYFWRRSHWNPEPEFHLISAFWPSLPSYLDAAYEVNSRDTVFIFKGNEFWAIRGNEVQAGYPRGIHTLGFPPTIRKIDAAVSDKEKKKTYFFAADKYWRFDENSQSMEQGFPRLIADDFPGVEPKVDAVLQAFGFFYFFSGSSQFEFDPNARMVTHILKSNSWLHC

HT-1080 = experiment: Inhibition of cell invasion in human HT-1080 cells for 24 hrs by Calcein AM staining based fluorometric analysis; format: functional; conditions: HT-1080, 24 h
[19] = Half life in Sprague-Dawley rats at 33 mg/kg, sc; format: ADME, organism-based; conditions: rat, in vivo
[20] = AUC in Sprague-Dawley rats at 33 mg/kg, sc; format: ADME, organism-based; design: dose 33 mg/kg, route sc; conditions: rat, in vivo
[21] = AUC in Sprague-Dawley rats at 33 mg/kg, po; format: ADME, organism-based; design: dose 33 mg/kg, route po; conditions: rat, in vivo
[22] = target: T1, 72 kDa type IV collagenase; experiment: Inhibition of recombinant human MMP-2 using peptide substrate by ELISA
[23] = target: T10, Macrophage metalloelastase (Homo sapiens, UniProt P39900); experiment: Inhibition of recombinant human MMP-12 using peptide substrate by ELISA
T10 sequence (P39900 whole entry): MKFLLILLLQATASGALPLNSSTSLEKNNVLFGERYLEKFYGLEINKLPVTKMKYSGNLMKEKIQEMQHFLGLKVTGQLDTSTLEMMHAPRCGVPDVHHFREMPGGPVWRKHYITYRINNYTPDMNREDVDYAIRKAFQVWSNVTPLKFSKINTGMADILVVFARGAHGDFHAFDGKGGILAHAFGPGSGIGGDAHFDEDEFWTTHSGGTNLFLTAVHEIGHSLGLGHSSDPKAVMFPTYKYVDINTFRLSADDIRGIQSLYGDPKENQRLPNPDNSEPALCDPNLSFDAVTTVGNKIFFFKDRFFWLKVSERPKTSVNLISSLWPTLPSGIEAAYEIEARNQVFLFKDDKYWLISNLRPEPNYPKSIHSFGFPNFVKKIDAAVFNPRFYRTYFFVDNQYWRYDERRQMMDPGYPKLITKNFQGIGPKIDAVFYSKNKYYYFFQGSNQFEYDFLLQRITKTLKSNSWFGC

[24] = Inhibition of recombinant human TACE using peptide substrate by ELISA
Collagenase 3 [25] = target: T4, Collagenase 3; experiment: Inhibition of recombinant human MMP-13 using peptide substrate by ELISA
[26] = Half life in Sprague-Dawley rat at 33 mg/kg, po; format: ADME, organism-based; conditions: in vivo
[27] = target: T2, Matrix metalloproteinase-9; experiment: Inhibition of recombinant human MMP-9 using peptide substrate by ELISA
Neutrophil collagenase [28] = target: T8, Neutrophil collagenase; experiment: Inhibition of MMP-8 (unknown origin)
Stromelysin-2 [29] = target: T9, Stromelysin-2; experiment: Inhibition of MMP-10 (unknown origin)
[30] = target: T2, Matrix metalloproteinase-9; experiment: Inhibition of MMP-9 (unknown origin) catalytic activity using Ac-PLG-[2-mercapto-4-methylpentanoyl]-LG-OC2H5 as substrate and measured upto 30 mins by microplate reader analysis
[31] = target: T10, Macrophage metalloelastase; experiment: Inhibition of MMP-12 (unknown origin)
[32] = target: T1, 72 kDa type IV collagenase; experiment: Inhibition of MMP-2 (unknown origin) catalytic activity using Ac-PLG-[2-mercapto-4-methylpentanoyl]-LG-OC2H5 as substrate and measured upto 30 mins by microplate reader analysis

T2 sequence (P14780 whole entry): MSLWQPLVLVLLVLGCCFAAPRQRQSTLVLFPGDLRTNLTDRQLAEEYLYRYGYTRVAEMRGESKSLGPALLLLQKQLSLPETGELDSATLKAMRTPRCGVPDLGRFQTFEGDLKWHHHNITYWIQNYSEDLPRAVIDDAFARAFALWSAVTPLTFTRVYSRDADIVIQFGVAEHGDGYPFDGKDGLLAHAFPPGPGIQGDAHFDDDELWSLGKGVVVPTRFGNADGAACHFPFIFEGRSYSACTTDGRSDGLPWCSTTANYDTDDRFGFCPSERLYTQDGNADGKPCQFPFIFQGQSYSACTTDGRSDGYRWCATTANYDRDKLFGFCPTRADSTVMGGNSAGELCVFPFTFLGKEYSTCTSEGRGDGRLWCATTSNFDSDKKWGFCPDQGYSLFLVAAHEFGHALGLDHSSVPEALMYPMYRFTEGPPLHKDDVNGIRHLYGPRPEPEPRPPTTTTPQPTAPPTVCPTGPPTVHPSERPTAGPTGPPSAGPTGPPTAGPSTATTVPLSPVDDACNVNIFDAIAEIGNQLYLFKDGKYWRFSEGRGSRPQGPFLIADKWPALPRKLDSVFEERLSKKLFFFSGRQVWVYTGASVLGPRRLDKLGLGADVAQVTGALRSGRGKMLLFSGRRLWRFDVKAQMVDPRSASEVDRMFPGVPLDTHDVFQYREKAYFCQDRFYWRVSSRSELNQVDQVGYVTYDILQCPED
T1 sequence (P08253 whole entry): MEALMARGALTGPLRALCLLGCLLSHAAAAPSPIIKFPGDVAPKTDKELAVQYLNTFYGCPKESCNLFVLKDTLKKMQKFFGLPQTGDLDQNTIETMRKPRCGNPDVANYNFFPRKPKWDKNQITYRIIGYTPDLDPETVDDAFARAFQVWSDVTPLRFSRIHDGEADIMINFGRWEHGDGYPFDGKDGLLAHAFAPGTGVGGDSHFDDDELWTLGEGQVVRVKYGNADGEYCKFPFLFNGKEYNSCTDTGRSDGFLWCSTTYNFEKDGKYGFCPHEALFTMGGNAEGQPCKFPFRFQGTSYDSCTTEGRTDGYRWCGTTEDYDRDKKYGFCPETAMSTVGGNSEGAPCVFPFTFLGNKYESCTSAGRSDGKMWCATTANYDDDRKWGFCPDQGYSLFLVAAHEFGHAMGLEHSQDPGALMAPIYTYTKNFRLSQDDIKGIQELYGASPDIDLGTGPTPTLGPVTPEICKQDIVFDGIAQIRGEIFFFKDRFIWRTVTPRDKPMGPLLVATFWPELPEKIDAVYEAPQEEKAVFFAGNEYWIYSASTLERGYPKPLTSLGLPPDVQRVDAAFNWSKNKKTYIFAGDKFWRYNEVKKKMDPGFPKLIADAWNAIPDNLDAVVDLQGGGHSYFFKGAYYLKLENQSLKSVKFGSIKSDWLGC

Compound `O=C(NCCCCC(NS(=O)(=O)c1ccc(-c2ccc(Cl)cc2)cc1)C(=O)O)OCc1ccccc1` (stereo unspecified) has a pIC50 [1] of 8.30 and a pIC50 [2] of 6.10.
For `O=C(C[C@@H](CSc1ccccc1)C(=O)O)c1ccc(-c2ccc(Cl)cc2)cc1`, the pKi [3] was 7.96, the pKi (Interstitial collagenase [4]) was under 5.30 and the pKi [5] was 6.52. The pKi (Collagenase 3 [6]) was 3.83.
Work on `O=C(O)CS(=O)(=O)c1ccc(-c2ccccc2)cc1` yielded a pIC50 [7] of 6.78, a pIC50 (Matrilysin [8]) of 4.85 and a pIC50 [3] of 4.90. It also gave a pIC50 (Interstitial collagenase [4]) of 3.42, a pIC50 [5] of 3.67 and a pIC50 (Stromelysin-1 [9]) of 3.44. The pIC50 (Collagenase 3 [6]) was 4.00.
Compound `O=C(NCCCCC(NS(=O)(=O)c1ccc(-c2ccccc2)cc1)C(=O)O)OCc1ccccc1` (stereo unspecified) has a pIC50 [1] of 7.30 and a pIC50 [2] of 5.74.
Compound `NC(=O)[C@H](CCC(=O)O)NC(=O)[C@@H](CCC(=O)O)NC(=O)CCc1ccc(-c2ccccc2)cc1` has a pKi [10] of 6.35, a pKi [11] of 5.96 and a pKi (Interstitial collagenase [12]) of under 4.00. For the same compound, the pKi (Stromelysin-1 [13]) was 5.17, the pKi [14] was 5.23 and the pKi (Neutrophil collagenase [15]) was 6.65. The pKi (Matrilysin [16]) was 4.61, the pKi (Collagenase 3 [17]) was 6.16 and the pKi (Stromelysin-2 [18]) was 5.95.
`CNC(=O)[C@@H](NC(=O)[C@H](CC(C)C)NC(=O)[C@H](S)CCN1C(=O)N(C)C(C)(C)C1=O)C(C)(C)C` gave a pIC50 [3] of 7.39, a pIC50 (Interstitial collagenase [4]) of 7.60 and a pIC50 [5] of 7.60. The pIC50 (Stromelysin-1 [9]) was 6.80 and the pIC50 (Collagenase 3 [6]) was 8.40.
In the case of `CN(C)c1ccc(O)c2c1C[C@H]1C[C@H]3[C@H](N(C)C)C(O)=C(C(N)=O)C(=O)[C@@]3(O)C(O)=C1C2=O` [MINOCYCLINE], the pIC50 (Matrilysin [8]) was 3.90, the pIC50 [5] was 3.74 and the pIC50 (Stromelysin-1 [9]) was 3.54.
`CCNC(=O)CCC(NS(=O)(=O)c1ccc(-c2ccccc2)cc1)C(=O)O` (stereo unspecified) showed a pIC50 [5] of 8.92.
`NC(=O)CCC(NS(=O)(=O)c1ccc(-c2ccccc2)cc1)C(=O)O` (stereo unspecified) gave a pIC50 [5] of 8.45.
`O=C(NO)C1(S(=O)(=O)c2ccc(Oc3ccc(Cl)cc3)cc2)CCOCC1` showed a pKi (Matrilysin [8]) of 5.92, a pKi [3] of 9.66 and a pKi (Stromelysin-1 [9]) of 8.03.
`COc1ccc(-c2ccc(CN3C(C(=O)NO)CCS3(=O)=O)cc2)cc1` (stereo unspecified) gave a pKi (Interstitial collagenase [4]) of 5.31.
With `CO[C@H](C(=O)NO)[C@@H](CC(C)C)C(=O)N[C@H](C(=O)Nc1ccccn1)C(C)(C)C` [SOLIMASTAT] the pIC50 (Matrilysin [8]) was 8.30, the pIC50 [3] was 7.10 and the pIC50 [5] was 7.15.
With `COc1ccccc1Nc1nc(-c2sc(NC(C)=O)nc2C)cs1` the pIC50 (HT-1080) was 6.00.
For `O=C(NCCCCCNS(=O)(=O)c1ccc(Oc2ccccc2)cc1)P(=O)(O)O`, the half-life [19] was 9.3 h, the AUC [20] was 78000 ng·h/mL and the AUC [21] was 6800 ng·h/mL. The pIC50 [22] was 8.40, the pIC50 [23] was under 7.10 and the pIC50 [24] was under 7.00. For the same compound, the pIC50 (Collagenase 3 [25]) was under 7.22, the half-life [26] was 10.5 h and the pIC50 [27] was under 7.00.
`O=C(NO)C1(S(=O)(=O)c2ccc(-n3cc(-c4ccc(-c5ccccc5)cc4)nn3)cc2)CCOCC1` showed a pIC50 (Neutrophil collagenase [28]) of under 7.00, a pIC50 [7] of 7.19 and a pIC50 (Matrilysin [8]) of under 7.00. The pIC50 (Stromelysin-2 [29]) was 7.29, the pIC50 (Interstitial collagenase [4]) was under 6.00 and the pIC50 [30] was 7.01. It also gave a pIC50 [31] of 8.49, a pIC50 [32] of 8.85 and a pIC50 (Stromelysin-1 [9]) of 7.76. For the same compound, the pIC50 (Collagenase 3 [6]) was 9.05.

— ChEMBL document CHEMBL5113513, “Selective Inhibitors of Medium-Size S1' Pocket Matrix Metalloproteinases: A Stepping Stone of Future Drug Discovery” (J Med Chem, 2022)
